Laboratory results reported in US20260209228A1 (Elanco Tiergesundheit AG, priority 2018, published 2026).

How the values were obtained:
D. immitis microfilariae = experiment: Dog heart worm microfilariae motility inhibition (Example A); type: cell-based; details: read-out: EC50 (motility inhibition)
[1] = test system: H. contortus (H.c.) larvae; experiment: Ruminant gastrointestinal H. contortus larvae motility inhibition (Example B); details: Haemonchus contortus, read-out: EC50 (motility inhibition)
Protocol: H.c. eggs isolated from lamb fecal matter are allowed to hatch overnight. Test compounds are diluted in DMSO and added to a 96-well plate containing appropriate media. H.c. larvae are added to each well and plates are incubated for the desired time(s). Motility is assessed using an LCD camera imaging system. Percent motility inhibition values are generated relative to the average of the DMSO-only wells.

L. sigmodontis = experiment: L.s. model (Example E); details: mice infected s.c. with L. sigmodontis larvae; oral gavage, dose between 1×3 mg/kg and 5×32 mg/kg; necropsy 5 weeks after infection
Protocol: Mice, injected subcutaneously with infective L. sigmodontis larvae, were subsequently treated with the test article formulated in eg DMSO/PEG 2/1, by oral gavage at a dose in a range between 1×3 mg/kg up to 5×32 mg/kg (one dose per day for 5 consecutive days). At necropsy 5 weeks after infection, efficacy is calculated by counting developed larvae vs. untreated animals using Abbot's formula.

H. contortus = experiment: Gastro intestinal nematodes jird model, H. contortus only (Example C); details: jirds; H. contortus from stomach; oral, Day 6 after infection, dose between 1×3 mg/kg and 1×32 mg/kg; necropsy three days after treatment
Protocol: Jirds (Meriones unguiculatus), are artificially infected by gavage with third instar larvae each of T. colubriformis and H. contortus. Then treated orally with the test compound formulated in eg DMSO/PEG 2/1, on Day 6 after infection at a dose in a range between 1×3 mg/kg up to 1×32 mg/kg. Three days after treatment, gerbils are euthanized and dissected to recover H. contortus from stomach and T. colubriformis from the small intestine. Efficacy is expressed as a % reduction in worm numbers in comparison with a placebo treated group, using the Abbot's formula.

Row | SMILES | EC50 (D. immitis microfilariae) [µg/mL] | EC50 [1] [µg/mL] | efficacy (developed larvae vs. untreated animals, Abbot's formula) (L. sigmodontis) [%] | efficacy against He (% reduction in worm numbers vs placebo treated group, Abbot's formula) (H. contortus) [%]
1 | CN(C)c1c(C(=O)N[C@H]2CCOc3ccccc32)ncc2c(-c3cc(Cl)cc(Cl)c3)cccc12 [Example 2.1, N-[(4S)-chroman-4-yl]-8-(3,5-dichlorophenyl)-4-(dimethylamino) isoquinoline-3-carboxamide] | < 0.1 | < 1 |  | 
2 | CN(C)c1c(C(=O)N[C@H]2CCOc3ccccc32)cnc2c(N3CCc4cc(Cl)ccc43)nccc12 [Example 1.7, 8-(5-chloroindolin-1-yl)-N-[(4S)-chroman-4-yl]-4-(dimethylamino)-1,7-naphthyridine-3-carboxamide] |  | < 1 |  | 
3 | O=C(N[C@H]1CCOc2ccccc21)c1cnc2c(-c3cc(Cl)cc(Cl)c3)nccc2c1N1CCOCC1 [Example 1.9, N-[(4S)-chroman-4-yl]-8-(3,5-dichlorophenyl)-4-morpholino-1,7-naphthyridine-3-carboxamide] | < 0.1 | < 1 |  | 
4 | CN(C)c1c(C(=O)N[C@H]2CCOc3ccccc32)cnc2c(-n3ccc4cc(Cl)ccc43)nccc12 [Example 1.8] | < 0.1 | < 1 | > 70 | 
5 | CN(C)c1c(C(=O)N[C@H]2CCOc3ccccc32)cnc2c(-c3cc(Cl)cc(Cl)c3)nccc12 [Example 1.1, N-[(4S)-chroman-4-yl]-8-(3,5-dichlorophenyl)-4-(dimethylamino)-1,7-naphthyridine-3-carboxamide] | < 0.1 | < 1 |  | 
6 | CN(C)c1c(C(=O)N[C@H]2CCOc3ccccc32)cnc2c(-c3ccccc3F)nccc12 [Example 1.49, N-[(4S)-chroman-4-yl]-8-(2-fluorophenyl)-4-(dimethylamino)-1,7-naphthyridine-3-carboxamide] | < 0.1 |  |  | 
7 | CN(C)c1c(C(=O)N[C@H]2CCOc3ccccc32)ccc2c(-c3cc(Cl)cc(Cl)c3)cncc12 [Example 7.1, N-[(4S)-Chroman-4-yl]-4-(3,5-dichlorophenyl)-8-(dimethylamino)isoquinoline-7-carboxamide] | < 0.1 | < 1 |  | 
8 | CN(C)c1c(C(=O)N[C@H]2CCOc3ccccc32)cnc2c(-c3ccc(Cl)cc3Cl)nccc12 [Example 1.54, N-[(4S)-chroman-4-yl]-8-(2,4-dichlorophenyl)-4-(dimethylamino)-1,7-naphthyridine-3-carboxamide] | < 0.1 | < 1 |  | 
9 | CN(C)c1c(C(=O)N[C@H]2CCOc3ccccc32)ccc2c(-c3cc(Cl)cc(Cl)c3)cccc12 [Example 5.1] | < 0.1 | < 1 |  | 
10 | CN(C)c1c(C(=O)N[C@H]2CCCc3ccccc32)cnc2c(-c3cc(Cl)cc(Cl)c3)nccc12 [Example 1.32, 8-(3,5-dichlorophenyl)-4-(dimethylamino)-N-[(1S)-tetralin-1-yl]-1,7-naphthyridine-3-carboxamide] | < 0.1 | < 1 |  | 
11 | CN(C)c1c(C(=O)N[C@H]2CCOc3ccccc32)ncc2c(-c3cc(Cl)cc(Cl)c3)nccc12 [Example 3.1, N-[(4S)-chroman-4-yl]-8-(3,5-dichlorophenyl)-4-(dimethylamino)-2,7-naphthyridine-3-carboxamide] |  | < 1 |  | 
12 | O=C1CN(c2c(C(=O)N[C@H]3CCOc4ccccc43)cnc3c(-c4cc(Cl)cc(Cl)c4)nccc23)CN1 [Example 1.37, N-[(4S)-chroman-4-yl]-8-(3,5-dichlorophenyl)-4-(4-oxoimidazolidin-1-yl)-1,7-naphthyridine-3-carboxamide] | < 0.1 | < 1 |  | 
13 | CN(C)c1c(C(=O)N[C@H]2CCOc3ccccc32)cnc2c(-c3cc(F)c(F)c(F)c3)nccc12 [Example 1.51, N-[(4S)-chroman-4-yl]-4-(dimethylamino)-8-(3,4,5-trifluorophenyl)-1,7-naphthyridine-3-carboxamide] | < 0.1 | < 1 |  | 
14 | CN(C)c1c(C(=O)N[C@H]2CCOc3ccccc32)cnc2c(-c3cc(F)cc(F)c3)nccc12 [Example 1.48, N-[(4S)-chroman-4-yl]-8-(3,5-difluorophenyl)-4-(dimethylamino)-1,7-naphthyridine-3-carboxamide] | < 0.1 | < 1 |  | 
15 | CN(C)c1c(C(=O)N[C@H]2CCOc3ccccc32)cnc2c(-c3cc(F)cc(F)c3F)nccc12 [Example 1.50, N-[(4S)-chroman-4-yl]-4-(dimethylamino)-8-(2,3,5-trifluorophenyl)-1,7-naphthyridine-3-carboxamide] | < 0.1 | < 1 |  | > 90
16 | CN(C)c1c(C(=O)N[C@H]2CCOc3ccccc32)cnc2c(-c3cccc(Cl)c3Cl)nccc12 [Example 1.55, N-[(4S)-chroman-4-yl]-8-(2,3-dichlorophenyl)-4-(dimethylamino)-1,7-naphthyridine-3-carboxamide] | < 0.1 | < 1 |  | 

Row | SMILES | EC50 (D. immitis microfilariae) [µg/mL] | EC50 [1] [µg/mL] | efficacy (developed larvae vs. untreated animals, Abbot's formula) (L. sigmodontis) [%] | efficacy against He (% reduction in worm numbers vs placebo treated group, Abbot's formula) (H. contortus) [%]
17 | N#CCc1c(C(=O)N[C@H]2CCOc3ccccc32)cnc2c(-c3cc(Cl)cc(Cl)c3)nccc12 [Example 1.38, N-[(4S)-chroman-4-yl]-4-(cyanomethyl)-8-(3,5-dichlorophenyl)-1,7-naphthyridine-3-carboxamide] | < 0.1 | < 1 |  | 
18 | CN(C)c1c(C(=O)N[C@H]2CCc3ccccc32)cnc2c(-c3cc(Cl)cc(Cl)c3)nccc12 [Example 1.21, 8-(3,5-dichlorophenyl)-4-(dimethylamino)-N-[(1S)-indan-1-yl]-1,7-naphthyridine-3-carboxamide] | < 0.1 | < 1 |  | 
19 | CN(C)c1c(C(=O)N[C@H]2CCOc3cc(F)ccc32)cnc2c(-c3cc(Cl)cc(Cl)c3)nccc12 [Example 1.17, 8-(3,5-dichlorophenyl)-4-(dimethylamino)-N-[(4S)-7-fluorochroman-4-yl]-1,7-naphthyridine-3-carboxamide] | < 0.1 | < 1 |  | 
20 | CN(C)c1c(C(=O)N[C@@H]2CCOc3ccsc32)cnc2c(-c3cc(Cl)cc(Cl)c3)nccc12 [Example 1.47, 8-(3,5-dichlorophenyl)-N-[(7R)-6,7-dihydro-5H-thieno[3,2-b]pyran-7-yl]-4-(dimethylamino)-1,7-naphthyridine-3-carboxamide] | < 0.1 | < 1 |  | 
21 | CN(C)c1c(C(=O)N[C@H]2CCOc3ccccc32)cnc2c(-c3cc(C(F)(F)F)cc(C(F)(F)F)c3)nccc12 [Example 1.52, 8-[3,5-bis(trifluoromethyl)phenyl]-N-[(4S)-chroman-4-yl]-4-(dimethylamino)-1,7-naphthyridine-3-carboxamide] | < 0.1 |  |  | 
22 | Cc1ccc2c(c1)OCC[C@@H]2NC(=O)c1cnc2c(-c3cc(Cl)cc(Cl)c3)nccc2c1N(C)C [Example 1.45, 8-(3,5-dichlorophenyl)-4-(dimethylamino)-N-[(4S)-7-methylchroman-4-yl]-1,7-naphthyridine-3-carboxamide] | < 0.1 | < 1 |  | 
23 | O=C(N[C@H]1CCOc2ccccc21)c1cnc2c(-c3cc(Cl)cc(Cl)c3)nccc2c1C1CC1 [Example 1.20, N-[(4S)-chroman-4-yl]-4-cyclopropyl-8-(3,5-dichlorophenyl)-1,7-naphthyridine-3-carboxamide] | < 0.1 | < 1 |  | 
24 | Nc1c(C(=O)N[C@H]2CCOc3ccccc32)cnc2c(-c3cc(Cl)cc(Cl)c3)nccc12 [Example 1.12, 4-amino-N-[(4S)-chroman-4-yl]-8-(3,5-dichlorophenyl)-1,7-naphthyridine-3-carboxamide] | < 0.1 | < 1 |  | 
25 | COc1c(C(=O)N[C@H]2CCOc3ccccc32)cnc2c(-c3cc(Cl)cc(Cl)c3)nccc12 [Example 1.33, N-[(4S)-chroman-4-yl]-8-(3,5-dichlorophenyl)-4-methoxy-1,7-naphthyridine-3-carboxamide] | < 0.1 | < 1 |  | 
26 | C[C@H]1COc2ccccc2[C@H]1NC(=O)c1cnc2c(-c3cc(Cl)cc(Cl)c3)nccc2c1N(C)C (racemic) [Example 1.39, 8-(3,5-dichlorophenyl)-4-(dimethylamino)-N-[rac-(3R,4S)-3-methylchroman-4-yl]-1,7-naphthyridine-3-carboxamide] | < 0.1 | < 1 |  | 
27 | COc1ccc(F)c(-c2nccc3c(N(C)C)c(C(=O)N[C@H]4CCOc5ccccc54)cnc23)c1F [Example 1.24, N-[(4S)-chroman-4-yl]-8-(2,6-difluoro-3-methoxyphenyl)-4-(dimethylamino)-1,7-naphthyridine-3-carboxamide] | < 0.1 | < 1 |  | 
28 | CON(C)c1c(C(=O)N[C@H]2CCOc3ccccc32)cnc2c(-c3cc(Cl)cc(Cl)c3)nccc12 [Example 1.31, N-[(4S)-chroman-4-yl]-8-(3,5-dichlorophenyl)-4-[methoxy(methyl)amino]-1,7-naphthyridine-3-carboxamide] | < 0.1 | < 1 |  | 
29 | O=C(N[C@H]1CCOc2ccccc21)c1cnc2c(-c3cc(Cl)cc(Cl)c3)nccc2c1Cl [Example 1.30, 4-chloro-N-[(4S)-chroman-4-yl]-8-(3,5-dichlorophenyl)-1,7-naphthyridine-3-carboxamide] | < 0.1 |  |  | 
30 | CC(C)c1c(C(=O)N[C@H]2CCOc3ccccc32)cnc2c(-c3cc(Cl)cc(Cl)c3)nccc12 [Example 1.42, N-[(4S)-chroman-4-yl]-8-(3,5-dichlorophenyl)-4-isopropyl-1,7-naphthyridine-3-carboxamide] | < 0.1 | < 1 |  | 
31 | CN(C)c1c(C(=O)N[C@H]2CCOc3ccccc32)ccc2c(-c3cc(Cl)cc(Cl)c3)ccnc12 [Example 6.1, N-[(4S)-Chroman-4-yl]-4-(3,5-dichlorophenyl)-8-(dimethylamino)quinoline-7-carboxamide] | < 0.1 | < 1 |  | 
32 | CN(C)c1c(C(=O)N[C@H]2CCOc3ccccc32)ccc2c(-c3cc(Cl)cc(Cl)c3)nccc12 [Example 4.1, N-[(4S)-chroman-4-yl]-1-(3,5-dichlorophenyl)-5-(dimethylamino)isoquinoline-6-carboxamide] | < 0.1 | < 1 |  | 
